# Measurements: US11179294B2, “Preservative removal from eye drops” (TearClear Corp., priority 2019, dated 2021)
# Where a name gives a salt, the structure may show the parent alone.
# How the values were obtained:
# Type in all cases: physicochemical
# [1] = Bimatoprost API/BAK uptake drop test through tip loaded with recrystallized stearic acid flakes (Table 8)
# Method: Bimatoprost ophthalmic solution (20 mL) was formulated by combining 0.0027 g of Citric Acid Anhydrous (Alfa Aesar L #X16D073), 0.0536 g of Sodium phosphate dibasic, heptahydrate (Fisher chemical L #187384) and 0.1619 g of Sodium Chloride (Fisher chemical L #177082) to 20 g stock solution (2NB70.1) of 300 ppm Bimatoprost and 50 ppm BAK.
# Bimatoprost formulation (3 mL), was placed into a 5 mL dropper bottle. Recrystallized Stearic acid flakes (0.116 g) was loaded into a proprietary testing tip. The tip was then placed on the dropper bottle containing the solution.
# In a simulated usage, two drops are dispensed and diluted according to the proper method for HPLC analysis. Additional pairs of drops are dispensed at intervals no less than 1 hour apart. A standard consisting of the starting material is taken and diluted according to the specific HPLC method. Then each pair of drops was analyzed on the HPLC. The uptake is determined by comparing the area counts of the starting solution to the area counts of the drop. Bimatoprost has a similar linear signal range as BAK in this formulation so all data is collected from a single drop test. […] In successive drops, the BAK is not detected (e.g., is undetectable, is below a detectable threshold based on UV absorption, etc.).
# [2] = Lifitegrast API uptake drop test through tip loaded with 50/50 polypropylene/stearic acid blend (Table 9); conditions: 5.0% Lifitegrast formulation, 0.328 g 50/50 blend in tip
# Method: (§1) A Lifitegrast ophthalmic solution (e.g., Xiidra mimic in the table) was prepared, consisting of 5.0% Lifitegrast (BOC Sciences Lot B19V08071), 2.0% Sodium Phosphate Dibasic Anhydrous (J. T. Baker Lot 0000236665), 0.5% Sodium thiosulfate pentahydrate (Fisher Chemical Lot 181801), and 0.005% BAK Aldrich 12063 (Lot #BCBW4741).
# (§2) Three mL of the Lifitegrast formulation was placed into a 5 mL dropper bottle. 50/50 polypropylene/steric acid blend (0.328 g) was loaded into a proprietary testing tip. The tip was then placed on the dropper bottle containing the solution.
# (§3) In a simulated usage, two drops are dispensed and diluted according to the proper method for HPLC analysis. Due to the relatively high concentration of Lifitegrast, 2 separate drops tests were done for the active pharmaceutical ingredient and BAK. A standard consisting of the starting material is taken and diluted according to the specific HPLC method. Then each pair of drops was analyzed on the HPLC. The uptake is determined by comparing the area counts of the HPLC peaks of the starting solution to the area counts of the drop.
# [3] = Timolol Maleate/Brimonidine tartrate API uptake drop test through tip loaded with 20/80 polypropylene/stearic acid powder (Table 6); conditions: solution 2NB62, 0.32 g stearic acid/polypropylene powder in tip, HPLC area counts of drops vs starting solution
# Method: (§4) A Timolol Maleate/Brimonidine tartrate ophthalmic solution was prepared (e.g., 2NB62, a Combigan analogue, etc) according to Table 5. The following were added to a 500 mL bottle: 2.151 g of Sodium Phosphate dibasic heptahydrate (Fisher Chemical L #187384), 0.432 g of Sodium Phosphate monobasic monohydrate (Fisher Chemical L #188731), 0.505 g of 0.991% BAK solution (Lot 2NB61), 0.202 g of Brimonidine Tartrate (BOC Sciences L #BV19V06171), and 0.681 g of Timolol Maleate (BOC Sciences L #BS19V04062). Ultra-pure water (100.017 g) of was added and stirred on a rotary shaker overnight to dissolve. Three mL of the solution, 2NB62, was placed into a 5 mL dropper bottle. Stearic acid/polypropylene powder (0.32 g) was loaded into a proprietary testing tip. The tip was then placed on the dropper bottle containing the solution.
# In a simulated usage, two drops are dispensed and diluted according to the proper method for HPLC analysis. Additional pairs of drops are dispensed at intervals no less than 1 hour (hr) apart. A standard consisting of the starting material is taken and diluted according to the specific HPLC method. Then each individual drop is analyzed on the HPLC. The uptake is determined by comparing the area counts from the HPLC peaks of the starting solution to the area counts of the drop.
# [4] = Timolol Maleate/Brimonidine tartrate BAK uptake drop test through tip loaded with 20/80 polypropylene/stearic acid powder (Table 7); conditions: solution 2NB62 through 20/80 blend tip
# Method: as §4
# In a simulated usage, two drops are dispensed and diluted according to the proper method for HPLC analysis. […] Then each individual drop is analyzed on the HPLC. The uptake is determined by comparing the area counts from the HPLC peaks of the starting solution to the area counts of the drop.
# A separate, parallel drop test was performed using the same materials to test BAK uptake. […] In successive drops, the BAK is not detected (e.g., is undetectable, is below a detectable threshold based on UV absorption, etc.).
# [5] = Lifitegrast BAK uptake drop test through tip loaded with 50/50 polypropylene/stearic acid blend (Table 10)
# Method: as §1, §2, §3
# [6] = 300 ppm Bimatoprost / 50 ppm BAK formulation, 0.116 g recrystallized stearic acid flakes in tip
compound,measurement,setting,value
CCNC(=O)CCC/C=C\C[C@@H]1[C@@H](/C=C/[C@@H](O)CCc2ccccc2)[C@H](O)C[C@@H]1O [Bimatoprost],Bimatoprost concentration after passing through the flakes,[1]; [6],not significantly reduced
CS(=O)(=O)c1cccc(C[C@H](NC(=O)c2c(Cl)cc3c(c2Cl)CCN(C(=O)c2ccc4ccoc4c2)C3)C(=O)O)c1 [Lifitegrast],Lifitegrast passage through the tip,[2],not hindered
"CC(C)(C)NC[C@H](O)COc1nsnc1N1CCOCC1 [Timolol, Timolol Maleate]",API concentration after passing through the powder in the tip,[3],neither the concentration of Timolol nor Brimonidine are significantly affected
Benzalkonium chloride [BAK],BAK in successive drops,"[4]; drops after the first, UV detection",not detected
same,"BAK in first drop, share of starting BAK",[4]; first drop,about 5%
same,BAK after passing through the flakes,[1]; [6],eliminated
same,BAK in successive drops,"[1]; successive drops, recrystallized stearic acid flakes tip",not detected
same,BAK in later drops,"[5]; drops after the first, Lifitegrast formulation through 50/50 blend tip",not detectable
same,BAK in first drop,"[5]; first drop, Lifitegrast formulation with 0.005% BAK through 50/50 blend tip",only a small amount
Brimonidine Tartrate,API concentration after passing through the powder in the tip,[3],neither the concentration of Timolol nor Brimonidine are significantly affected
